From paper PMC8119466, “A screen of FDA-approved drugs identifies inhibitors of protein tyrosine phosphatase 4A3 (PTP4A3 or PRL-3)” (Scientific Reports, 2021)
Structures can show the parent of a compound that is named as a salt.

Assays:
Assay type in all cases: biochemical
Settings in all cases: FDA-approved drug screen; compared to DMSO
recombinant PRL-1 = target: T1, recombinant PRL-1 (Homo sapiens, UniProt Q93096); test: In vitro phosphatase assay (DiFMUP hydrolysis), PRL-1; also: test concentration or dose not given here
T1 construct: 6xHis (N, cleaved yes); made in house; host or cells: E. coli One Shot BL21 Star
T1 sequence (Q93096 1-173): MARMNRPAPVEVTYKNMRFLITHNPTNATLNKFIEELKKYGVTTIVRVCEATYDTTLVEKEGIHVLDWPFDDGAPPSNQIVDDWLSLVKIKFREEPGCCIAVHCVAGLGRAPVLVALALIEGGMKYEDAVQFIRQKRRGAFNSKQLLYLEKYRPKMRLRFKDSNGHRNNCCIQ

recombinant PRL-2 = target: T2, recombinant PRL-2 (Homo sapiens, UniProt Q12974); test: In vitro phosphatase assay (DiFMUP hydrolysis), PRL-2;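 also: PRL-2 activity read as DiFMUP hydrolysis after 20 min at room temperature with drug, enzyme first pre-reduced at 4 °C for 20 min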
T2 construct: 6xHis (N, cleaved yes); made in house; host or cells: E. coli One Shot BL21 Star
T2 sequence (Q12974 1-167): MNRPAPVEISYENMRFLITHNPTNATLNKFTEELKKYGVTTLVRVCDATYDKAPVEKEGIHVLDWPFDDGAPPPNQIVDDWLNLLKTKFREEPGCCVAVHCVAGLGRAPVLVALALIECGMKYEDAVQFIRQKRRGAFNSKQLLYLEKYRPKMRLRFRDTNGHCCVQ

recombinant PRL-3 = target: T3, recombinant PRL-3 (Homo sapiens, UniProt O75365); test: In vitro phosphatase assay (DiFMUP hydrolysis), PRL-3; also: test concentration or dose not given here
T3 construct: 6xHis (N, cleaved yes); made in house; host or cells: E. coli One Shot BL21 Star
T3 sequence (O75365 whole entry): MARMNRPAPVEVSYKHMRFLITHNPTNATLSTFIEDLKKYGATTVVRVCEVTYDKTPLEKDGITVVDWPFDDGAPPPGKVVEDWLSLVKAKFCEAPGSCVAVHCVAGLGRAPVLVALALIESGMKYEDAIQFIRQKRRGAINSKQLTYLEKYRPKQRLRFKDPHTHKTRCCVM

SMILES	% Phosphatase Activity (compared to DMSO) PRL-1 (recombinant PRL-1) [%]	% Phosphatase Activity (compared to DMSO) PRL-2 (recombinant PRL-2) [%]	% Phosphatase Activity (compared to DMSO) PRL-3 (recombinant PRL-3) [%]
Clc1ccc(COC(Cn2ccnc2)c2ccc(Cl)cc2Cl)c(Cl)c1 (stereo not drawn) [Miconazole]	109	101	86
CC#C[C@]1(O)CC[C@H]2[C@@H]3CCC4=CC(=O)CCC4=C3[C@@H](c3ccc(N(C)C)cc3)C[C@@]21C [Mifepristone]	96	135	95
OCCN1C[C@H](O)[C@@H](O)[C@H](O)[C@H]1CO [Miglitol]	114	120	88
CCN(CC)C(=O)C1(c2ccccc2)CC1CN.Cl (stereo not drawn) [Milnacipran HCl]	114	107	80
Cc1[nH]c(=O)c(C#N)cc1-c1ccncc1 [Milrinone]	98	110	83
CCCCCCCCCCCCCCCCOP(=O)([O-])OCC[N+](C)(C)C [Miltefosine]	92	94	122
CN(C)c1ccc(O)c2c1C[C@H]1C[C@H]3[C@H](N(C)C)C(O)=C(C(N)=O)C(=O)[C@@]3(O)C(O)=C1C2=O [Minocycline HCl]	84	70	104
Nc1nc(CC(=O)Nc2ccc(CCNC[C@H](O)c3ccccc3)cc2)cs1 [Mirabegron]	104	113	88
CN1CCN2c3ncccc3Cc3ccccc3C2C1 (stereo not drawn) [Mirtazapine]	92	114	98
CO[C@@]12[C@H](COC(N)=O)C3=C(C(=O)C(C)=C(N)C3=O)N1C[C@@H]1N[C@@H]12 [Mitomycin C]	68	54	64
Clc1ccc(C(c2ccccc2Cl)C(Cl)Cl)cc1 (stereo not drawn) [Mitotane]	98	93	103
O=C1c2c(O)ccc(O)c2C(=O)c2c(NCCNCCO)ccc(NCCNCCO)c21 [Mitoxantrone HCl]	74	76	61
NC(=O)c1ncn([C@@H]2O[C@H](CO)[C@@H](O)[C@H]2O)c1O [Mizoribine]	93	78	85
Nc1ccccc1NC(=O)c1ccc(CNc2nccc(-c3cccnc3)n2)cc1 [Mocetinostat (MGCD0103)]	98	108	84
NC(=O)C[S+]([O-])C(c1ccccc1)c1ccccc1 (stereo not drawn) [Modafinil]	91	92	82
CCOC(=O)[C@H](CCc1ccccc1)N[C@@H](C)C(=O)N1Cc2cc(OC)c(OC)cc2C[C@H]1C(=O)O [Moexipril HCl]	103	98	83
CCOC(=O)CC(=O)N1CCSC1COc1ccccc1OC (stereo not drawn) [Moguisteine]	104	98	87

SMILES	% Phosphatase Activity (compared to DMSO) PRL-1 (recombinant PRL-1) [%]	% Phosphatase Activity (compared to DMSO) PRL-2 (recombinant PRL-2) [%]	% Phosphatase Activity (compared to DMSO) PRL-3 (recombinant PRL-3) [%]
O=c1c(-n2ccnn2)c[nH]n1-c1cc(N2CCOCC2)ncn1 [Molidustat (BAY 85-3934)]	90	74	84
CCOC(=O)[N-]c1cn(N2CCOCC2)n[o+]1 [Molsidomine]	99	110	79
C[C@@H]1C[C@H]2[C@@H]3CCC4=CC(=O)C=C[C@]4(C)[C@@]3(Cl)[C@@H](O)C[C@]2(C)[C@@]1(OC(=O)c1ccco1)C(=O)CCl [Mometasone furoate]	85	87	77
Oc1ccc(OCc2ccccc2)cc1 [Monobenzone]	105	112	72
CC(C)(O)c1ccccc1CC[C@@H](SCC1(CC(=O)O)CC1)c1cccc(/C=C/c2ccc3ccc(Cl)cc3n2)c1 [Montelukast Sodium]	172	161	182
CCOc1cc(N)c(Cl)cc1C(=O)NCC1CN(Cc2ccc(F)cc2)CCO1 (stereo not drawn) [Mosapride Citrate]	88	101	57
CCCN(CCC)C(=O)C1=Cc2ccc(-c3ccc(C(=O)N4CCCC4)cc3)cc2N=C(N)C1 [Motolimod (VTX-2337)]	103	90	106
CO[C@@]1(NC(=O)C(C(=O)O)c2ccc(O)cc2)C(=O)N2C(C(=O)O)=C(CSc3nnnn3C)CO[C@@H]21 (stereo partly drawn) [Moxalactam Disodium]	88	97	89
COc1c(N2C[C@@H]3CCCN[C@@H]3C2)c(F)cc2c(=O)c(C(=O)O)cn(C3CC3)c12 [Moxifloxacin HCl]	562	594	417
COc1nc(C)nc(Cl)c1N=C1NCCN1 [Moxonidine]	105	109	80
C/C(=C\C(=O)OCCCCCCCCC(=O)O)C[C@@H]1OC[C@H](C[C@@H]2O[C@H]2[C@@H](C)[C@H](C)O)[C@@H](O)[C@H]1O [Mupirocin]	92	97	69
COc1c(C)c2c(c(O)c1C/C=C(\C)CCC(=O)OCCN1CCOCC1)C(=O)OC2 [Mycophenolate Mofetil]	131	125	102
COc1c(C)c2c(c(O)c1C/C=C(\C)CCC(=O)O)C(=O)OC2 [Mycophenolic acid]	125	100	85
COc1ccc2cc(CCC(C)=O)ccc2c1 [Nabumetone]	91	102	68
CC1CCc2c(N3CCC(O)CC3)c(F)cc3c(=O)c(C(=O)O)cn1c23 (stereo not drawn) [Nadifloxacin]	133	108	86
N=C(N)c1ccc2cc(OC(=O)c3ccc(N=C(N)N)cc3)ccc2c1 [Nafamostat Mesylate]	204	264	67
CCOc1ccc2ccccc2c1C(=O)N[C@@H]1C(=O)N2[C@@H]1SC(C)(C)[C@@H]2C(=O)O [Nafcillin Sodium]	98	108	60
